Reference: patent publication US10150948B2, “Compositions and methods for producing and administering brown adipocytes” (The Regents of the University of California, priority 2013, dated 2018)

Tests used:
WAT derived ADMSCs = test: Neutral lipid staining of ADMSCs differentiated on adhesion peptide coated TCPS; assay type: cell-based, mouse; conditions: neutral lipid staining after differentiation on peptide coated TCPS
Description: Fat depots from L2G85 (FVB/NJ) or C57BL6/J mice, perigonadal (visceral) or inguinal (subcutaneous) respectively, were isolated post mortem from 3 month old mice. These fat depots were washed with sterile phosphate buffered saline (PBS) for 10 minutes. The tissues were then minced with scissors into fragments smaller than 1 mm and digested in 0.1% type II collagenase (Gibco) in DMEM with 5% bovine serum albumin (BSA) (Fisher) for 1 hr at room temperature (RT) on an orbital shaker. The digest was then filtered through sterile gauze and centrifuged at 400×RCF for 10 minutes. The cell pellet was then suspended in an erythrocyte lysis buffer 155 mM NH4Cl, 5.7 mM K2HPO4, 0.1 mM EDTA in ultrapure water for 10 m minutes. The resulting suspension was then centrifuged at 400×RCF for 10 minutes to pellet the ADMSCs. The resulting ADMSC pellet was suspended in DMEM with 10% fetal bovine serum (FBS) and 1% P/S and plated on TCPS. […]
FIGS. 1A-F: Effects of adhesion ligands ADMSC differentiation. […] C) Quantitative rtPCR analysis of UCP1 expression of WAT derived murine ADMSCs that were differentiated on indicated adhesion substrate coated TCPS (see Tab. […] D) Quantitative rtPCR analysis of UCP1 expression of WAT derived ADMSCs differentiated on mixtures of Ag73 and C16 (n=6). […] F) Quantitative rtPCR analysis of UCP1 expression of WAT derived ADMSCs differentiated on mixtures of Ag73 and Ag32 (n=6).

[1] = test system: WAT derived murine ADMSCs; test: UCP1 expression (quantitative rtPCR) of ADMSCs differentiated on adhesion peptide coated TCPS; assay type: cell-based, mouse; conditions: ADMSCs differentiated on single peptide coated TCPS; vs uncoated TCPS
Description: Fat depots from L2G85 (FVB/NJ) or C57BL6/J mice, perigonadal (visceral) or inguinal (subcutaneous) respectively, were isolated post mortem from 3 month old mice. These fat depots were washed with sterile phosphate buffered saline (PBS) for 10 minutes. The tissues were then minced with scissors into fragments smaller than 1 mm and digested in 0.1% type II collagenase (Gibco) in DMEM with 5% bovine serum albumin (BSA) (Fisher) for 1 hr at room temperature (RT) on an orbital shaker. The digest was then filtered through sterile gauze and centrifuged at 400×RCF for 10 minutes. […]
Purified peptides were suspended at 20 μM in ultrapure water with 1% P/S. In 24 well TC plates (BD Falcon, 353047), 20 μM peptide suspensions were added to each well. […] The adherent and non adherent cells were then counted with the CyQuant kit (Invitrogen).
Tissue samples suspended in RNALater ICE (Ambion) and stored at −20° C. mRNA was isolated from RNALater ICE stabilized tissues or directly from in vitro cultures of monolayers or cell laden hydrogels with Trizol reagent (Ambion). […] Established delta delta CT method was employed to comparatively assess mRNA quantity. […]
FIGS. 1A-F: Effects of adhesion ligands ADMSC differentiation. […] C) Quantitative rtPCR analysis of UCP1 expression of WAT derived murine ADMSCs that were differentiated on indicated adhesion substrate coated TCPS (see Tab. […]

Row | Sequence | lipid accumulation (WAT derived ADMSCs) | UCP1 expression [1]
1 | CGGKAFDITYVRLKF [C16, α5β1/3 integrin-engaging ligand, laminin γ1 chain peptide with N-terminal CGG] | significantly greater lipid accumulation | 
2 | CGGRKRLQVQLSIRT [AG73, adhesion ligand for α6 integrins and syndecan-1, laminin a1 chain peptide with N-terminal CGG] |  | particularly efficient in driving UCP1 expression
